In US9403866B2, “Compositions and methods for increasing telomerase activity” (Telomerase Activation Sciences, Inc., priority 2009, dated 2016):
pEC50: −log10 of the molar value. Read-outs that look alike come from different tables or passages of the source.

Assays:
[1] = biological target: T1, telomerase (Homo sapiens, UniProt O14746); assay: Keratinocyte cell/TRAP assay (HEKneo-P cells); type: cell-based; set-up: host or cells: HEKneo-P (pooled neonatal human epidermal keratinocytes)
Source text: Harley et al., U.S. Pat. […] Harley et al., U.S. Pat. […] Non-treatment control (NT) was also included. […]

[2] = biological target: T1, telomerase; assay: Peripheral blood monocyte cell (PBMC)/TRAP assay; type: cell-based; set-up: host or cells: HEKneo-P (pooled neonatal human epidermal keratinocytes); conditions: 24 hours
Source text: Cell lines suitable for use in the assay, normal human peripheral blood mononuclear cells (PBMCs) or Human Epidermal Keratinocytes (neonatal) (HEKs), can be obtained from commercial sources, such as Cascade Biologics, Portland, Oreg. or 4C Biotech, Seneffe, Belgium, or from the ATCC (American Type Culture Collection). ATCC normal human fibroblast cell lines, which can be located on the ATCC web site, include for example, CCL135, CCL137, and CCL151.
PBMC Isolation. Blood was collected in sodium heparin vacutainers and pooled into a single 50 mL polypropylene tube. Blood was diluted 1:1 with 1×PBS and mixed thoroughly by inversion. 25 mL of diluted blood was layered over 12 mL of Lympholyte-H (Cedarlane Laboratories) and centrifuged at room temperature for 20 min at 800 g. […]
Culture Conditions. The cells were counted using Trypan Blue exclusion and resuspended in complete media that is supplemented with 50 Units of hIL-2/mL so that final concentration of cells is 1×10^6/mL. […] At least once a week, cells are counted and media level is adjusted to keep cells around 5—10^5/mL. […]
Treatment with Analogs. After 10-14 days in culture, cells were counted and resuspended in conditioned media at a concentration of 1×10^6/mL. […]
TRAP Reaction and Gel. Samples were analyzed using a 1-step TRAP PCR reaction. […]

[3] = Plasma levels and bioavailability in rats; conditions: male, Sprague Dawley, rat, in vivo, po, 10 mg/kg
Method: (§1) The plasma levels of a compound following a single intravenous and oral administration in carotid artery-cannulated male Sprague Dawley rats was determined. Plasma samples were collected and used to determine the plasma concentration of the compound and metabolites. In addition tissue samples, including whisker samples and PBMC cells were collected for telomerase activity analysis.
(§2) Carotid artery-cannulated male Sprague Dawley rats were divided into treatment groups according to Table 6. The rats were provided ad libitum SLAC-MO1 # YY080208 (Shanghai Laboratories Animal Center, Shanghai, China) throughout the in-life portion of the study with the exception of the overnight fasting period prior to oral dosing. Water was available ad libitum.
The compounds were dissolved in 2% EtOH/98% water to yield a final concentration of 2.5 mg/ml and 1 mg/ml for both intravenous and oral administration, respectively. The concentration of each compound was confirmed by HPLC analysis.
Body weights were taken on the day of dose administration. Dose volume was determined based on individual body weight taken on day of dosing.
(§3) Blood samples (approximately 250 μL) were collected via cannulae into tubes containing K2-EDTA anticoagulant and 1 mg/ml NaF at the various time points. Blood was stored on ice and then plasma separated via centrifugation (8000 rpm×6 minutes). The plasma was stored at […] until LC-MS/MS analysis.
Percentage of bioavailability was calculated.

[4] = set-up: species or system male Beagle dogs; conditions: male, Beagle, dog, in vivo, po, 10 mg/kg
Method: as §1, with “level” for “levels”, “in” for “in carotid artery-cannulated”, “Beagle dogs” for “Sprague Dawley rats”
as §2, with “Male Beagle dogs” for “Carotid artery-cannulated male Sprague Dawley rats”, “5.” for “6.”, “dogs” for “rats”, “#W080701” for “# YY080208”
The compounds were dissolved in 2% EtOH/98% water […] to yield a final concentration of 2.5 mg/ml and 1 mg/ml for both intravenous and oral administration, respectively. The concentration of each compound was confirmed by HPLC analysis.
Doses were administered intravenously via the left femoral vein and then by oral dosing one week later. Body weights were taken on the day of dose administration. Dose volume was determined based on individual body weight taken on day of dosing.
as §3, with “right femoral vein” for “cannulae”, “appropriate” for “the various”

T1 sequence (O14746 whole entry): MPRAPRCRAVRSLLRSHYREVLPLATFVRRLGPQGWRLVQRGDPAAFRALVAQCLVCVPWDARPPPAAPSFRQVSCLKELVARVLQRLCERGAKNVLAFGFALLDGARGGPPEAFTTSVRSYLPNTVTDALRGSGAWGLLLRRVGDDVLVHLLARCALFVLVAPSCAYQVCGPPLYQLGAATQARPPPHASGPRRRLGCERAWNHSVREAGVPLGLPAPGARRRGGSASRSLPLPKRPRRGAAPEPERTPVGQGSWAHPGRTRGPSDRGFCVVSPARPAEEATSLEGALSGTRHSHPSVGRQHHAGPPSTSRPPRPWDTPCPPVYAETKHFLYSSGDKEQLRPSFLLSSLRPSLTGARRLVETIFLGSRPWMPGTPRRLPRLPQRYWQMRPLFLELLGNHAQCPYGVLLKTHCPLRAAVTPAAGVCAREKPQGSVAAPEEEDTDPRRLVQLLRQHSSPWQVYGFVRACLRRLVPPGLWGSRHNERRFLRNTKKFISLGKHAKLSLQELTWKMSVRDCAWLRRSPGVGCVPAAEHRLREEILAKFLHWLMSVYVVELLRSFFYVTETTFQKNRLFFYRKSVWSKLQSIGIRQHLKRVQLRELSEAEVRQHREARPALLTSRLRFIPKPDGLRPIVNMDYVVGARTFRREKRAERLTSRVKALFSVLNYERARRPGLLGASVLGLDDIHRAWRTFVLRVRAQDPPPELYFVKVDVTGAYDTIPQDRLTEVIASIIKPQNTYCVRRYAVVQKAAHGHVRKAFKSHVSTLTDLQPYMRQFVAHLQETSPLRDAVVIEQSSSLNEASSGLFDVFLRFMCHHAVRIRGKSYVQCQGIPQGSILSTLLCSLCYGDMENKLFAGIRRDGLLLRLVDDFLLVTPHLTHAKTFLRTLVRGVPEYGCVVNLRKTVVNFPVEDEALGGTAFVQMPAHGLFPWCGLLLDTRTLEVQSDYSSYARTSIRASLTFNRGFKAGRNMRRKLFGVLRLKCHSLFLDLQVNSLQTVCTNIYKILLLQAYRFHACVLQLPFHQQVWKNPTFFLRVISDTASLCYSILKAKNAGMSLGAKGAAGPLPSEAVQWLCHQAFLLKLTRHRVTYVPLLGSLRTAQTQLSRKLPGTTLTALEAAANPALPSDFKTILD

CC(C)(O)[C@@H]1CC[C@](C)([C@H]2[C@@H](O)C[C@@]3(C)[C@@H]4C[C@H](O)[C@H]5C(C)(C)[C@@H](O)CC[C@@]56C[C@@]46CC[C@]23C)O1 [Compound 2, 17-[5-(1-Hydroxy-1-methyl-ethyl)-2-methyl-tetrahydro-furan-2-yl]-4,4,13,14-tetramethyl-tetradecahydro-cyclopropa[9,10]cyclopenta[a]phenanthrene-3β,6α,16β-triol, reference compound]
Max fold increase of activity [1]: 3.3 fold | Activity in in vitro HEK assay ([1]; 24 hr, 0.01 to 10 μM, vs vehicle control at peak of full dose curve): + (telomerase activation is 2 fold or more in comparison with vehicle control at the peak of the full dose curve.) | pEC50 ([1]; telomerase activation): 7.52 | Fold increase at 1 μM [2]: 1.6-20.7 fold | Bioavailability % F [3]: 22.6% | Bioavailability % F [4]: 3%
